Experimental data from PMC5085792, “Seeking for Non-Zinc-Binding MMP-2 Inhibitors: Synthesis, Biological Evaluation and Molecular Modelling Studies” (International Journal of Molecular Sciences, 2016).

Columns and labels:
[1] = molecular target: T1, catalytic domain of MMP-8 (Homo sapiens, UniProt P22894); assay: MMP-8 enzyme inhibition assay (fluorogenic substrate); format: biochemical; details: mean ± SEM of at least three independent measurements in triplicate
T1 construct: The catalytic domains of MMP-2, MMP-8 and MMP-13 were purchased from Enzo Life Sciences; purchased Enzo Life Sciences (Lörrach, Germany)
T1 sequence (P22894 100-262 limits assumed): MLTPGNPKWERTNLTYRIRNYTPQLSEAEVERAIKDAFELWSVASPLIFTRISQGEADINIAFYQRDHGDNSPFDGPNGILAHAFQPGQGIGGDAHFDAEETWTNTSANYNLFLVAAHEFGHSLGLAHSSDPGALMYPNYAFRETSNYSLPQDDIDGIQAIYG
Experimental: (§1) The synthesized compounds were submitted to MMP inhibition assays. A dose/response preliminary screening was performed at 100 µM by registering the residual enzyme activity on MMP-2, MMP-8 and MMP-13 (Figure 4). Compounds showing a percentage of inhibition higher than 50% were submitted to IC50 calculation.
(§2) The catalytic domains of MMP-2, MMP-8 and MMP-13 were purchased from Enzo Life Sciences (Lörrach, Germany). The assays were performed in triplicate in 96-well white microtiter plates (Corning, NBS; Corning, NY, USA). For assay measurements, inhibitor stock solutions (DMSO, 10 mM) were diluted to six different concentrations (1 nM–100 µM) in fluorometric assay buffer (50 mM Tris·HCl pH 7.5, 200 mM NaCl, 1 mM CaCl2, 1 µM ZnCl2, 0.05% Brij-35 and 1% DMSO). Enzyme and inhibitor solutions were incubated in the assay buffer for 15 min at room temperature before the addition of the fluorogenic substrate solution (OmniMMP® = Mca-Pro-Leu-Gly-Leu-Dpa-Ala-Arg-NH2, Enzo Life Sciences, 2.5 µM final concentration or OmniMMP®RED = TQ3-GABA-Pro-Cha-Abu-Smc-His-Ala-Dab(6’-TAMRA)-Ala-Lys-NH2, (TAMRA: tetramethylrhodamine) Enzo Life Sciences, 1 µM final concentration). After further incubation for 2–4 h at 37 °C, fluorescence was measured (λex = 340 nm, λem = 405 nm or λex = 545 nm, λem = 572 nm) using a Perkin-Elmer Victor V3 plate reader (Waltham, MA, USA). Control wells lacked inhibitor. The MMP inhibition activity was expressed in relative fluorescence units (RFU). Percent inhibition was calculated from control reactions without inhibitor; IC50 values were determined using GraphPad Prism version 5.0f and are expressed as the mean ± SEM of at least three independent measurements in triplicate.

[2] = molecular target: T2, catalytic domain of MMP-2 (Homo sapiens, UniProt P08253); assay: MMP-2 enzyme inhibition assay (fluorogenic substrate); format: biochemical; details: for IC50: mean ± SEM of at least three independent measurements in triplicate
T2 construct: The catalytic domains of MMP-2, MMP-8 and MMP-13 were purchased from Enzo Life Sciences; purchased Enzo Life Sciences (Lörrach, Germany)
T2 sequence (P08253 110-446 limits assumed): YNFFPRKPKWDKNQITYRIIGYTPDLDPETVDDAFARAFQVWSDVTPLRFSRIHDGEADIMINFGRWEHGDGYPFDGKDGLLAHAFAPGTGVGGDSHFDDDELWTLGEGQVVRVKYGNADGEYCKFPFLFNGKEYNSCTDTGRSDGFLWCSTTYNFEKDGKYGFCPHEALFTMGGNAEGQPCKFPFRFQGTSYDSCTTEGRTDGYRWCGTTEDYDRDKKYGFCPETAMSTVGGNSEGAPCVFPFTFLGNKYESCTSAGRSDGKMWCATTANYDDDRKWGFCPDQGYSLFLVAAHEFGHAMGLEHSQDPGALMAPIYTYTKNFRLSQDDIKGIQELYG
Experimental: as §1, §2

[3] = molecular target: T3, catalytic domain of MMP-13 (Homo sapiens, UniProt P45452); assay: MMP-13 enzyme inhibition assay (fluorogenic substrate); format: biochemical; details: mean ± SEM of at least three independent measurements in triplicate
T3 construct: The catalytic domains of MMP-2, MMP-8 and MMP-13 were purchased from Enzo Life Sciences; purchased Enzo Life Sciences (Lörrach, Germany)
Experimental: as §1, §2

[4] = test system: MMP-2; design: method as in PMID 23873724; details: previous work, virtual screening hits; cited from earlier work
[5] = test system: MMP-13; design: method as in PMID 23873724; details: previous work, virtual screening hits; cited from earlier work
[6] = test system: MMP-8; design: method as in PMID 23873724; details: previous work, virtual screening hits; cited from earlier work

Row | Compound | melting point | other results
1 | O=C(NCc1ccccc1)c1cccc2cnccc12 [Compound 2c] | 182 to 183 °C | 
2 | O=C(NCc1ccccc1)NN1CCCC1 [Compound 1z] | 124 to 126 °C | 
3 | O=C(NCc1ccccc1)Nc1cccc2cnccc12 [Compound 1h] | 248 to 249 °C | IC50 [1]: > 100 µM; IC50 [2]: 15 ± 4 µM; IC50 [3]: 14 ± 4 µM
4 | COc1ccc(CNC(=O)NCc2ccccc2)cc1OC [Compound 1u] | 127 °C | 
5 | O=S(=O)(Nc1ccc2cnccc2c1)c1ccccc1 [Compound 2e] | 228 to 230 °C | 
6 | O=C(NCc1ccccc1)Nc1ccccn1 [Compound 1p] | 148 to 150 °C | 
7 | CC(NC(=O)NCc1ccccc1)c1ccccc1 (stereo not drawn) [Compound 1w] | 116 to 118 °C | 
8 | O=C(NCc1ccccc1)Nc1nccc2ccccc12 [Compound 1e] | 164 to 165 °C | 
9 | O=C(NCc1ccccc1)Nc1cncc2ccccc12 [Compound 1g] | 235 to 237 °C | IC50 [1]: > 100 µM; IC50 [2]: 74 ± 3 µM; IC50 [3]: 73 ± 11 µM
10 | O=C(Cc1ccccc1)Nc1cccc2cnccc12 [Compound 2a] | 186 to 188 °C | 
11 | O=C(NCc1ccccc1)Nc1ccc(O)cc1 [Compound 1s] | 177 to 179 °C | 
12 | COc1cccc(CNC(=O)NCc2ccccc2)c1OC [Compound 1t] | 149 °C | 
13 | O=C(NCc1ccccc1)Nc1cccc2ncccc12 [Compound 1c] | 251 °C (dec.) | IC50 [1]: > 100 µM; IC50 [2]: 55 ± 1 µM; IC50 [3]: 58 ± 1 µM
14 | O=C(NCc1ccccc1)Nc1ccc2cn[nH]c2c1 [Compound 1m] | 198 to 199 °C | 
15 | O=C(NCc1ccccc1)Nc1cccc2ccccc12 [Compound 1n] | 196 to 197 °C | 
16 | O=C(NCc1ccccc1)Nc1ccc2[nH]ccc2c1 [Compound 1j] | 197 to 198 °C | 
17 | O=C(NCc1ccccc1)Nc1ccc2[nH]ncc2c1 [Compound 1l] |  | IC50 [1]: > 100 µM; IC50 [2]: 86 ± 2 µM; IC50 [3]: 98 ± 2 µM
18 | O=C(NCc1ccc(NS(=O)(=O)c2ccccc2)cc1)Nc1cccc2cnccc12 [Compound 5] | 117 to 119 °C | IC50 [1]: 88 ± 5 µM; IC50 [2]: 54 ± 7 µM; IC50 [3]: 55 ± 7 µM
19 | O=C(NCc1ccco1)Nc1c[nH]c2ccc(F)cc2c1=O [Hit 2] |  | IC50 [4]: 15 µM; IC50 [5]: 5 µM; IC50 [6]: 105 µM
20 | O=C(CCc1ccccc1)Nc1cccc2cnccc12 [Compound 2b] | 133 to 135 °C | 
21 | O=C(NCCc1ccccc1)c1cccc2cnccc12 [Compound 2d] | 120 to 121 °C | 
22 | O=C(NCc1ccco1)Nc1c[nH]c2cccnc2c1=O [Hit 1] |  | IC50 [4]: 5 µM; IC50 [5]: 36 µM; IC50 [6]: 75 µM
23 | O=C(NCc1ccccc1)Nc1ccc2cc[nH]c2c1 [Compound 1k] | 211 to 213 °C | 
24 | O=C(NCc1ccccc1)Nc1cccc2ccncc12 [Compound 1i] | 206 to 208 °C | MMP inhibition activity (in words) ([2]; preliminary screening at 100 µM, isoform not given, MMP-2): inactive
25 | O=C(NCc1ccc(NC(=O)c2ccccc2)cc1)Nc1cccc2cnccc12 [Compound 7] | 200 to 202 °C | IC50 [1]: 48.5 ± 1.6 µM; IC50 [2]: 7.4 ± 0.8 µM; IC50 [3]: 6.6 ± 0.4 µM
26 | O=C(NCc1ccccc1)Nc1ccnc2ccccc12 [Compound 1b] | 167 to 169 °C | 
27 | O=C(NCc1ccccc1)Nc1cc2ccccc2cn1 [Compound 1f] | 168 to 170 °C | 
28 | O=C(NCc1ccccc1)Nc1ccc2ccccc2c1 [Compound 1o] | 208 to 210 °C | 
29 | O=C(NCc1ccccc1)Nc1cccnc1 [Compound 1q] | 154 to 156 °C | 
